Common to all, as to type: cell-based
One test deals with A. baumannii 160S. The test can be described thus: MIC, CLSI broth microdilution assay. As to conditions: agent alone. How it is done:
(§1) For the described examples, reference and clinical isolates were generally obtained from known sources, including American Type Culture Collection (Manasas, VA.) or International Health Management Associates, Inc. (Schaumberg, IL). Bacteria were cultured in suitable broth, concentrated by centrifugation, and cryopreserved in the same medium, generally containing 20% glycerol by holding at −80° C. Every two weeks a small amount of frozen culture was removed aseptically and streaked on fresh agar plates to act as a working inoculum. Following overnight growth at about 37° C., the plates were wrapped in parafilm and held at about 4° C. Bacteria (4-5 colonies) were then aseptically transferred into broth growth medium for assays as needed.
(§2) Minimal inhibitory concentration (MIC) assays were performed in a manner as described for the CLSI broth microdilution assay guideline (see, Clinical Laboratory Standards Institute, 2009, Methods for Dilution Antimicrobial Susceptibility Tests for Bacteria That Grow Aerobically; Approved Standard, Eighth Edition, M07-A8, Vol. 29, No. 2). Antibiotics were dissolved, and then serially diluted in suitable broth across the assay plate in the classical 2-fold geometric format. Antibiotic concentrations in each well at this point were double what the final assay concentration would be. Bacterial inocula were prepared by swabbing several colonies from a fresh agar plate, and resuspending the bacteria to a density that was the 0.5 McFarland turbidity standard (generally close or equivalent to 1×10^8 CFU/mL). The bacterial inocula were diluted in the broth to about 1×10^6 CFU/mL, and a suitable amount, e.g., 100 μL was overlayered onto the wells containing the diluted antibiotics. Following incubation as per the guideline, results were recorded as growth or no growth, and the lowest concentration of antibiotic where no growth was observed was declared the MIC.
A general note: In broth dilution the organism is exposed to a series of concentrations in liquid medium.

In test [1] the test system is E. coli 7623. Nature of the test: MIC, CLSI broth microdilution assay. Conditions: agent alone. On the procedure:
as §1, §2

The next test relates to E. coli ATCC 25922. Nature of the test: MIC, CLSI broth microdilution assay. As to conditions: agent alone. How it is done:
as §1, §2

The subject of test [2] is K. pneumoniae 1161486. The test can be described thus: MIC, CLSI broth microdilution assay. As to conditions: agent alone. How it is done: as §1, §2
Test [3] concerns K. pneumoniae 170S. Nature of the test: MIC, CLSI broth microdilution assay. Conditions: agent alone. How it is done: as §1, §2
The subject of test [4] is E. coli 7623. The test can be described thus: Synergy checkerboard assay of antibacterial combinations. As to conditions: in combination with A-24. How it is done: as §1
as §2, with “Bacterial inocula were prepared by swabbing several colonies from a fresh agar plate, and resuspending the bacteria to a density that was the 0.5 McFarland turbidity standard (generally close or equivalent to 1×10^8 CFU/mL). The bacterial inocula were diluted in the broth to about 1×10^6 CFU/mL, and a suitable amount, e.g., 100 μL was overlayered onto the wells containing the diluted antibiotics.” left out
(§3) To assay for synergy of antibacterial combinations, a recognized synergy checkerboard assay, adapted from the CLSI guideline microdilution assay, was utilized (see Eliopoulos, G. M., and Moellering, R. C, Jr., 1996. Antimicrobial Combinations, pg. 330-396. In: Lorian, V. (Ed.), Antibiotics in Laboratory Medicine, 4th Ed., Williams & Wilkins; Baltimore, MD). […] The fractional inhibitory concentration, which provides the mathematical definition (as shown below) is calculated to determine whether antibacterial synergy was observed. […]

In test [5] the test system is K. pneumoniae 1161486. The test is described as above. As to conditions: in combination with A-24. On the procedure: as §1
as §2, with “Bacterial inocula were prepared by swabbing several colonies from a fresh agar plate, and resuspending the bacteria to a density that was the 0.5 McFarland turbidity standard (generally close or equivalent to 1×10^8 CFU/mL). The bacterial inocula were diluted in the broth to about 1×10^6 CFU/mL, and a suitable amount, e.g., 100 μL was overlayered onto the wells containing the diluted antibiotics.” left out
as §3

In test [6] the test system is K. pneumoniae 170S. The description is as above. Conditions: in combination with A-24. How it is done: as §1
as §2, with “Bacterial inocula were prepared by swabbing several colonies from a fresh agar plate, and resuspending the bacteria to a density that was the 0.5 McFarland turbidity standard (generally close or equivalent to 1×10^8 CFU/mL). The bacterial inocula were diluted in the broth to about 1×10^6 CFU/mL, and a suitable amount, e.g., 100 μL was overlayered onto the wells containing the diluted antibiotics.” left out
as §3

A value given as a limit tells only on which side of the number the result lay.

In the case of pristinamycin, the MIC – broadly, the lowest concentration found to suppress growth – against A. baumannii 160S is 128 µg/mL; against E. coli 7623 [1] it was 64 µg/mL; against E. coli ATCC 25922, 64 µg/mL; with K. pneumoniae 1161486 [2] it was greater than 128 µg/mL; in the test with K. pneumoniae 170S [3], greater than 128 µg/mL. The “MIC of Pristinamycin in Combo” value is 32 µg/mL in the test with E. coli 7623 [4], no more than 2 µg/mL with K. pneumoniae 1161486 [5] and 2 µg/mL in the test with K. pneumoniae 170S [6].

The values above are taken from US11951148B1 (Fleurir ABX LLC, priority 2014, dated 2024).
